Assay results reported in US6504058B1 (priority 1997, dated 2003).

What was measured:
Pyricularia oryzae = type: in vivo, Pyricularia oryzae (on rice seedlings); settings: 200 ppm test suspension sprayed to run-off (equivalent to 500 g/ha) on rice seedlings; 100 = 100% disease control, 0 = no control; # = significant activity
Phytophthora infestans = type: in vivo, Phytophthora infestans (on tomato seedlings); settings: 200 ppm test suspension sprayed to run-off (equivalent to 500 g/ha) on tomato seedlings; 100 = 100% disease control, 0 = no control; # = significant activity
[1] = test system: Erysiphe graminis f. sp. tritici; assay: Test A: wheat powdery mildew, preventive spray on wheat seedlings, disease rating; type: in vivo, Erysiphe graminis f. sp. tritici (on wheat seedlings); settings: 200 ppm test suspension sprayed to run-off (equivalent to 500 g/ha) on wheat seedlings; 100 = 100% disease control, 0 = no control; # = significant activity
Source text: (§1) Test compounds were first dissolved in acetone in an amount equal to 3% of the final volume and then suspended at a concentration of 200 ppm in purified water containing 250 ppm of the surfactant Trem® 014 (polyhydric alcohol esters). The resulting test suspensions were then used in the following test. Spraying these 200 ppm test suspensions to the point of run-off on the test plants is the equivalent of a rate of 500 g/ha.
The test suspension was sprayed to the point of run-off on wheat seedlings. The following day the seedlings were inoculated with a spore dust of Erysiphe graminis f. sp. tritici, (the causal agent of wheat powdery mildew) and incubated in a growth chamber at 20° C. for 7 days, after which disease ratings were made.
(§2) Results for Tests A-E are given in Table A. In the table, a rating of 100 indicates 100% disease control and a rating of 0 indicates no disease control (relative to the controls). A dash (-) indicates no test results. ND indicates disease control not determined due to phytotoxicity. # indicates significant activity.

Puccinia recondita = assay: Test B: wheat leaf rust, preventive spray on wheat seedlings, disease rating; type: in vivo, Puccinia recondita (on wheat seedlings); settings: 200 ppm test suspension sprayed to run-off (equivalent to 500 g/ha) on wheat seedlings; 100 = 100% disease control, 0 = no control; # = significant activity
Source text: as §1
(§3) The test suspension was sprayed to the point of run-off on wheat seedlings. The following day the seedlings were inoculated with a spore suspension of Puccinia recondita (the causal agent of wheat leaf rust) and incubated in a saturated atmosphere at 20° C. for 24 h, and then moved to a growth chamber at 20° C. for 6 days, after which disease ratings were made.
as §2

Botrytis cinerea = assay: Test E: gray mold, preventive spray on cucumber seedlings, disease rating; type: in vivo, Botrytis cinerea (on cucumber seedlings); settings: 200 ppm test suspension sprayed to run-off (equivalent to 500 g/ha) on cucumber seedlings; 100 = 100% disease control, 0 = no control; # = significant activity
Source text: as §1
as §3, with “cucumber” for “wheat”, “Botrytis cinerea” for “Puccinia recondita”, “gray mold on many crops)” for “wheat leaf rust)”, “48” for “24”, “and” for “and then”, “5” for “6”
as §2

Row | SMILES | Test C disease control rating (rice blast) (Pyricularia oryzae) | Test D disease control rating (potato and tomato late blight) (Phytophthora infestans) | Test A disease control rating (wheat powdery mildew) [1] | Test B disease control rating (wheat leaf rust) (Puccinia recondita) | Test E disease control rating (gray mold) (Botrytis cinerea)
1 | CC(COc1cc(F)ccc1Cl)NC(=O)C1(C)CC(C)(Br)C1 (centres unmarked) [compound 56] | 100# (a rating of 100 indicates 100% disease control) | 0 (a rating of 0 indicates no disease control (relative to the controls)) | 99# % | 0 (a rating of 0 indicates no disease control (relative to the controls)) | 0 (a rating of 0 indicates no disease control (relative to the controls))
2 | CC(NC(=O)C1(C)CC(C)(Cl)C1)c1ccc(Br)cc1 (centres unmarked) [compound 14] | 97# % | 0 (a rating of 0 indicates no disease control (relative to the controls)) | 0 (a rating of 0 indicates no disease control (relative to the controls)) | 0 (a rating of 0 indicates no disease control (relative to the controls)) | 0 (a rating of 0 indicates no disease control (relative to the controls))
3 | CC(NC(=O)C1CC(C)(Cl)C1)C(Oc1ccccc1C#N)c1ccccc1 (centres unmarked) [compound 36] | 0 (a rating of 0 indicates no disease control (relative to the controls)) | 0 (a rating of 0 indicates no disease control (relative to the controls)) | 0 (a rating of 0 indicates no disease control (relative to the controls)) | 0 (a rating of 0 indicates no disease control (relative to the controls)) | 0 (a rating of 0 indicates no disease control (relative to the controls))
4 | CC(COc1ccc(Br)cc1C#N)NC(=O)C1(C)CC(C)(Cl)C1 (centres unmarked) [compound 37] | 0 (a rating of 0 indicates no disease control (relative to the controls)) | 23% | 0 (a rating of 0 indicates no disease control (relative to the controls)) | 25% | 8%
5 | CC(NC(=O)C1(C)CC(C)(Cl)C1)c1ccc2ccccc2c1 (centres unmarked) [compound 24] | 100# (a rating of 100 indicates 100% disease control) | 0 (a rating of 0 indicates no disease control (relative to the controls)) | 0 (a rating of 0 indicates no disease control (relative to the controls)) | 0 (a rating of 0 indicates no disease control (relative to the controls)) | 0 (a rating of 0 indicates no disease control (relative to the controls))
6 | CC(NC(=O)C1(C)CC(Cl)(CCl)C1)c1ccc(Br)cc1 (centres unmarked) [compound 62] | 97# % | 84# % | 0 (a rating of 0 indicates no disease control (relative to the controls)) | 0 (a rating of 0 indicates no disease control (relative to the controls)) | 0 (a rating of 0 indicates no disease control (relative to the controls))
7 | CC(COc1cc(F)ccc1F)NC(=O)C1(C(F)(F)F)CC(C)(Cl)C1 (centres unmarked) [compound 28] | 100# (a rating of 100 indicates 100% disease control) | 0 (a rating of 0 indicates no disease control (relative to the controls)) | 53% | 0 (a rating of 0 indicates no disease control (relative to the controls)) | 0 (a rating of 0 indicates no disease control (relative to the controls))
8 | CC(COc1cc(Br)ccc1C#N)NC(=O)C1(C)CC(C)(Cl)C1 (centres unmarked) [compound 48] | 99# % | 47% | 96# % | 85# % | 0 (a rating of 0 indicates no disease control (relative to the controls))
9 | CC(COc1cc(Br)ccc1C#N)NC(=O)C1(C)CC(C)(Cl)C1 (centres unmarked) [compound 47] | 94# % | 26% | 97# % | 25% | 0 (a rating of 0 indicates no disease control (relative to the controls))
10 | CC(NC(=O)C1CC(C)(Cl)C1)C(Oc1cc(F)ccc1C#N)c1ccccc1 (centres unmarked) [compound 33] | 52% | 0 (a rating of 0 indicates no disease control (relative to the controls)) | 0 (a rating of 0 indicates no disease control (relative to the controls)) | 0 (a rating of 0 indicates no disease control (relative to the controls)) | 0 (a rating of 0 indicates no disease control (relative to the controls))
11 | CC(COc1cc(F)ccc1F)NC(=O)C1(C)CC(C)(Br)C1 (centres unmarked) [compound 58] | 97# % | 0 (a rating of 0 indicates no disease control (relative to the controls)) | 72% | 0 (a rating of 0 indicates no disease control (relative to the controls)) | 0 (a rating of 0 indicates no disease control (relative to the controls))
12 | CC(COc1cc(Cl)ccc1C#N)NC(=O)C1(C)CC(C)(Cl)C1 (centres unmarked) [compound 46] | 91# % | 43% | 63% | 28% | 0 (a rating of 0 indicates no disease control (relative to the controls))
13 | COc1cc(Br)ccc1C(C)NC(=O)C1(C)CC(C)(Cl)C1 (centres unmarked) [compound 59] | 100# (a rating of 100 indicates 100% disease control) | 23% | 0 (a rating of 0 indicates no disease control (relative to the controls)) | 85# % | 0 (a rating of 0 indicates no disease control (relative to the controls))
14 | CC(NC(=O)C1(C)CC(C)(Cl)C1)c1ccc(Cl)cc1Cl (centres unmarked) [compound 19] | 100# (a rating of 100 indicates 100% disease control) | 0 (a rating of 0 indicates no disease control (relative to the controls)) | 33% | 0 (a rating of 0 indicates no disease control (relative to the controls)) | 0 (a rating of 0 indicates no disease control (relative to the controls))
15 | CC(NC(=O)C1(C)CC(C)(Cl)C1)c1cccc2ccccc12 (centres unmarked) [compound 22] | 0 (a rating of 0 indicates no disease control (relative to the controls)) | 0 (a rating of 0 indicates no disease control (relative to the controls)) | 0 (a rating of 0 indicates no disease control (relative to the controls)) | 0 (a rating of 0 indicates no disease control (relative to the controls)) | 0 (a rating of 0 indicates no disease control (relative to the controls))
16 | CC(COc1cc(Cl)ccc1F)NC(=O)C1(C)CC(C)(Br)C1 (centres unmarked) [compound 53] | 100# (a rating of 100 indicates 100% disease control) | 0 (a rating of 0 indicates no disease control (relative to the controls)) | 100# (a rating of 100 indicates 100% disease control) | 0 (a rating of 0 indicates no disease control (relative to the controls)) | 0 (a rating of 0 indicates no disease control (relative to the controls))
